Test results published in patent publication EP0547317A1, “Endothelin antagonists” (TAKEDA CHEMICAL INDUSTRIES, LTD., priority 1991, dated 1993).
Bridge positions count the residues as written; N and C are the ends. Square brackets hold non-standard residues; d marks the D form. Peptide text beside a SMILES is read from it. tBuAla = CC(C)(C)C[C@H](N)C(=O)O; Cha = N[C@@H](CC1CCCCC1)C(=O)O; Mpa = O=C(O)CCS

System: porcine coronary smooth muscles
Experiment: Assay of constrictor suppressing activity on porcine coronary smooth muscles (antagonism of endothelin-1 constriction)
Assay type: cell-based
Details: for pA₂: antagonistic activity on constriction by endothelin-1 given cumulatively about 15 minutes after the compound, negative logarithm of molar concentration of antagonist shifting the dose response curve by a factor of 2; for Relative potency: antagonistic activity on the constriction of porcine coronary smooth muscles, Example 1 = 100
Description: • (1) Assay of Constrictor Suppressing Activity on Porcine Coronary Smooth Muscles Spiral strips 2 mm x 15 mm prepared from the coronary right ramus circumflexus from which the adventitial connective tissues and the endothelial cells were removed were set to 4 ml organ baths. The tension of each strip was detected by a force displacement transducer UL-10GR (Minebea), and recorded by a polygraph (NEC Sanei). The organ baths were maintained at 37°C, and filled with a Krebs-Henseleit solution (composition: 118 mM NaCl, 4.7 mM KCl, 2.5 mM CaCl₂, 1.2 mM KH₂PO₄, 25.0 mM NaHCO₃, 1.2 mM MgSO₄, 10.0 mM glucose) gassed with 95% O₂ and 5% CO₂. A tension of 1.25 to 1.5 g was applied to each of the strips, followed by equilibration for 1.5 hours. 60 mM KCl was repeatedly applied thereto at intervals of 30 minutes until the constriction response became constant. After additional equilibration for 1.5 hours, a sample for assay was given thereto. The constriction of the strips was normalized by the constriction response of the individual strips to 60 mM KCl and statistically processed. The suppressing activity was determined as a pA₂ value by giving endothelin-1 cumulatively about 15 minutes after the compound having a predetermined concentration was given, and comparing the constriction thereof with that of a control sample in which only endothelin-1 was given. […] Such a case has not been reported yet. […] The affinity for the receptor was assayed by the following method.

SMILES	pA₂	Relative potency
CC[C@H](C)[C@H](NC(=O)[C@H](CC(C)C)NC(=O)[C@@H](NC(=O)[C@H](CC(C)C)NC(=O)[C@H](Cc1c[nH]cn1)NC(=O)[C@@H]1CSSC[C@H](N)C(=O)N[C@@H](CO)C(=O)N[C@H]2CSSC[C@H](NC(=O)[C@H](CCC(=O)O)NC(=O)[C@H](CCCCN)NC(=O)[C@H](CC(=O)O)NC(=O)[C@H](CCSC)NC(=O)[C@H](CC(C)C)NC(=O)[C@H](CO)NC(=O)[C@H](CO)NC2=O)C(=O)N[C@@H](C(C)C)C(=O)N[C@@H](Cc2ccc(O)cc2)C(=O)N[C@@H](Cc2ccccc2)C(=O)N1)[C@@H](C)O)C(=O)N[C@@H](Cc1c[nH]c2ccccc12)C(=O)O [Example 1, [Thr¹⁸, Leu¹⁹]-ET-1] (H-CSCSSLMDKECVYFCHLTLIW-OH; disulfide 1-15, 3-11)	7.7	100
CC[C@H](C)[C@H](NC(=O)[C@H](CC1CCCCC1)NC(=O)[C@@H](NC(=O)[C@H](CC(C)C)NC(=O)[C@H](Cc1c[nH]cn1)NC(=O)[C@@H]1CSSC[C@H](N)C(=O)N[C@@H](CO)C(=O)N[C@H]2CSSC[C@H](NC(=O)[C@H](CCC(=O)O)NC(=O)[C@H](CCCCN)NC(=O)[C@H](CC(=O)O)NC(=O)[C@H](CCSC)NC(=O)[C@H](CC(C)C)NC(=O)[C@H](CO)NC(=O)[C@H](CO)NC2=O)C(=O)N[C@@H](C(C)C)C(=O)N[C@@H](Cc2ccc(O)cc2)C(=O)N[C@@H](Cc2ccccc2)C(=O)N1)[C@@H](C)O)C(=O)N[C@@H](Cc1c[nH]c2ccccc12)C(=O)O [Example 2, [Thr¹⁸, Cha¹⁹]-ET-1] (H-CSCSSLMDKECVYFCHLT[Cha]IW-OH; disulfide 1-15, 3-11)	7.7	100
CC[C@H](C)[C@H](NC(=O)[C@H](Cc1ccccc1)NC(=O)[C@@H](NC(=O)[C@H](CC(C)C)NC(=O)[C@H](Cc1c[nH]cn1)NC(=O)[C@@H]1CSSC[C@H](N)C(=O)N[C@@H](CO)C(=O)N[C@H]2CSSC[C@H](NC(=O)[C@H](CCC(=O)O)NC(=O)[C@H](CCCCN)NC(=O)[C@H](CC(=O)O)NC(=O)[C@H](CCSC)NC(=O)[C@H](CC(C)C)NC(=O)[C@H](CO)NC(=O)[C@H](CO)NC2=O)C(=O)N[C@@H](C(C)C)C(=O)N[C@@H](Cc2ccc(O)cc2)C(=O)N[C@@H](Cc2ccccc2)C(=O)N1)[C@@H](C)O)C(=O)N[C@@H](Cc1c[nH]c2ccccc12)C(=O)O [Example 3, [Thr¹⁸, Phe¹⁹]-ET-1] (H-CSCSSLMDKECVYFCHLTFIW-OH; disulfide 1-15, 3-11)	7.2	32
CC[C@H](C)[C@H](NC(=O)[C@H](CC(C)(C)C)NC(=O)[C@@H](NC(=O)[C@H](CC(C)C)NC(=O)[C@H](Cc1c[nH]cn1)NC(=O)[C@@H]1CSSC[C@H](N)C(=O)N[C@@H](CO)C(=O)N[C@H]2CSSC[C@H](NC(=O)[C@H](CCC(=O)O)NC(=O)[C@H](CCCCN)NC(=O)[C@H](CC(=O)O)NC(=O)[C@H](CCSC)NC(=O)[C@H](CC(C)C)NC(=O)[C@H](CO)NC(=O)[C@H](CO)NC2=O)C(=O)N[C@@H](C(C)C)C(=O)N[C@@H](Cc2ccc(O)cc2)C(=O)N[C@@H](Cc2ccccc2)C(=O)N1)[C@@H](C)O)C(=O)N[C@@H](Cc1c[nH]c2ccccc12)C(=O)O [Example 4, [Thr¹⁸, γLeu¹⁹]-ET-1] (H-CSCSSLMDKECVYFCHLT[tBuAla]IW-OH; disulfide 1-15, 3-11)	7.4	50
CC[C@H](C)[C@H](NC(=O)[C@H](CC(C)C)NC(=O)[C@H](CO)NC(=O)[C@H](CC(C)C)NC(=O)[C@H](Cc1c[nH]cn1)NC(=O)[C@@H]1CSSC[C@H](N)C(=O)N[C@@H](CO)C(=O)N[C@H]2CSSC[C@H](NC(=O)[C@H](CCC(=O)O)NC(=O)[C@H](CCCCN)NC(=O)[C@H](CC(=O)O)NC(=O)[C@H](CCSC)NC(=O)[C@H](CC(C)C)NC(=O)[C@H](CO)NC(=O)[C@H](CO)NC2=O)C(=O)N[C@@H](C(C)C)C(=O)N[C@@H](Cc2ccc(O)cc2)C(=O)N[C@@H](Cc2ccccc2)C(=O)N1)C(=O)N[C@@H](Cc1c[nH]c2ccccc12)C(=O)O [Example 6, [Ser¹⁸, Leu¹⁹]-ET-1] (H-CSCSSLMDKECVYFCHLSLIW-OH; disulfide 1-15, 3-11)	7.5	63
CC[C@H](C)[C@H](NC(=O)[C@H](CC(C)C)NC(=O)CNC(=O)[C@H](CC(C)C)NC(=O)[C@H](Cc1c[nH]cn1)NC(=O)[C@@H]1CSSC[C@H](N)C(=O)N[C@@H](CO)C(=O)N[C@H]2CSSC[C@H](NC(=O)[C@H](CCC(=O)O)NC(=O)[C@H](CCCCN)NC(=O)[C@H](CC(=O)O)NC(=O)[C@H](CCSC)NC(=O)[C@H](CC(C)C)NC(=O)[C@H](CO)NC(=O)[C@H](CO)NC2=O)C(=O)N[C@@H](C(C)C)C(=O)N[C@@H](Cc2ccc(O)cc2)C(=O)N[C@@H](Cc2ccccc2)C(=O)N1)C(=O)N[C@@H](Cc1c[nH]c2ccccc12)C(=O)O [Example 8, [Gly¹⁸, Leu¹⁹]-ET-1] (H-CSCSSLMDKECVYFCHLGLIW-OH; disulfide 1-15, 3-11)	6.7	10
CC[C@H](C)[C@H](NC(=O)[C@H](CC(C)C)NC(=O)[C@@H](NC(=O)[C@H](CC(C)C)NC(=O)[C@H](Cc1c[nH]cn1)NC(=O)[C@@H]1CSSC[C@H](N)C(=O)N[C@@H](CO)C(=O)N[C@H]2CSSC[C@H](NC(=O)[C@H](CCC(=O)O)NC(=O)[C@H](C)NC(=O)[C@H](CC(=O)O)NC(=O)[C@H](CCSC)NC(=O)[C@H](CC(C)C)NC(=O)[C@H](CO)NC(=O)[C@H](CO)NC2=O)C(=O)N[C@@H](C(C)C)C(=O)N[C@@H](Cc2ccc(O)cc2)C(=O)N[C@@H](Cc2ccccc2)C(=O)N1)[C@@H](C)O)C(=O)N[C@@H](Cc1c[nH]c2ccccc12)C(=O)O [Example 10, [Ala⁹, Thr¹⁸, Leu¹⁹]-ET-1] (H-CSCSSLMDAECVYFCHLTLIW-OH; disulfide 1-15, 3-11)	5.9	1.6
CC[C@H](C)[C@H](NC(=O)[C@H](CC(C)C)NC(=O)[C@@H](NC(=O)[C@H](CC(C)C)NC(=O)[C@H](Cc1c[nH]cn1)NC(=O)[C@@H]1CSSCCC(=O)N[C@@H](CO)C(=O)N[C@H]2CSSC[C@H](NC(=O)[C@H](CCC(=O)O)NC(=O)[C@H](CCCCN)NC(=O)[C@H](CC(=O)O)NC(=O)[C@H](CCSC)NC(=O)[C@H](CC(C)C)NC(=O)[C@H](CO)NC(=O)[C@H](CO)NC2=O)C(=O)N[C@@H](C(C)C)C(=O)N[C@@H](Cc2ccc(O)cc2)C(=O)N[C@@H](Cc2ccccc2)C(=O)N1)[C@@H](C)O)C(=O)N[C@@H](Cc1c[nH]c2ccccc12)C(=O)O [Example 11, [Mpr¹, Thr¹⁸, Leu¹⁹]-ET-1] ([Mpa]SCSSLMDKECVYFCHLTLIW-OH; disulfide 1-15, 3-11)	6.5	6
CC[C@H](C)[C@H](NC(=O)[C@H](CC(C)C)NC(=O)[C@@H](NC(=O)[C@H](CC(C)C)NC(=O)[C@H](Cc1c[nH]cn1)NC(=O)[C@@H]1CSSC[C@H](N)C(=O)N[C@@H](C)C(=O)N[C@H]2CSSC[C@H](NC(=O)[C@H](CCC(=O)O)NC(=O)[C@H](CCCCN)NC(=O)[C@H](CC(=O)O)NC(=O)[C@H](CCSC)NC(=O)[C@H](CC(C)C)NC(=O)[C@H](CO)NC(=O)[C@H](CO)NC2=O)C(=O)N[C@@H](C(C)C)C(=O)N[C@@H](Cc2ccc(O)cc2)C(=O)N[C@@H](Cc2ccccc2)C(=O)N1)[C@@H](C)O)C(=O)N[C@@H](Cc1c[nH]c2ccccc12)C(=O)O [Example 12, [Ala², Thr¹⁸, Leu¹⁹]-ET-1] (H-CACSSLMDKECVYFCHLTLIW-OH; disulfide 1-15, 3-11)	6.7	10
